Source: patent US20250108036A1, “COMPOSITIONS FOR REMOVING SENESCENT CELLS AND USES THEREOF” (LIFECEUTIX CO., LTD., priority 2021, published 2025)

How the values were obtained:
Format in all cases: cell-based, human
[1] = test system: foreskin cells in which senescence was induced by doxorubicin; experiment: CellTiter-Glo cell viability of doxorubicin-induced senescent foreskin cells (Examples 1-2, 10, 11, 13; Tables 4, 63, 65); conditions: Homo sapiens, 72 h, doxorubicin-induced senescent foreskin cells, CellTiter-Glo, 0 μM = 100, read-out: Survival (%); for viability at 1.1 µM: 1.1 μM test compound; for viability at 10 µM: 10 μM test compound; for viability at 30 µM: 30 μM test compound; for viability at 90 µM: 90 μM test compound; for viability at […]: […] test compound
Method: After 3 days, cell viability was measured using CellTiter-Glo Luminescent Cell Viability Assay (Promega) or light microscopy.

[2] = test system: HMGN1; experiment: HMGN1 ELISA in culture medium of foreskin cells (Examples 10, 11; Tables 62, 63, 64); conditions: Homo sapiens, doxorubicin-treated foreskin cells, DMSO = 100; for activity at 90 µM: 90 μM test compound; for activity at 30 µM: 30 μM test compound, read-out: HMGN1
[3] = test system: HMGN1; experiment: HMGN1 ELISA in culture medium of A549 cancer cells (Example 12, Table 66); conditions: Homo sapiens, A549, doxorubicin-induced senescent A549 cells, ELISA, DMSO = 100, read-out: HMGN1 (amount of HMGN1 secreted in the cell culture); for activity at 30 µM: test compound 30 μM
[4] = test system: A549; experiment: CellTiter-Glo cell viability of senescent A549 cancer cells (Example 12, Table 67); conditions: Homo sapiens, A549, doxorubicin-induced senescent A549 cancer cells, CellTiter-Glo, read-out: Survival (%); for viability at 1.1 µM: 1.1 μM test compound; for viability at 10 µM: 10 μM test compound; for viability at 30 µM: 30 μM test compound; for viability at 90 µM: 90 μM test compound

| SMILES | viability at 1.1 µM [1] [%] | viability at 10 µM [1] [%] | viability at 30 µM [1] [%] | viability at 90 µM [1] [%] | viability at […] [1] [%] | activity at 90 µM [2] [%] | activity at 270 µM ([3]; test compound 270 μM) [%] | viability at 1.1 µM [4] [%] | viability at 10 µM [4] [%] | viability at 30 µM [4] [%] | viability at 90 µM [4] [%] | viability at 270 µM ([4]; 270 μM test compound) [%] | activity at 30 µM [2] [%] | activity at 30 µM [3] [%] | activity at 90 µM ([3]; test compound 90 μM) [%] |
| --- | --- | --- | --- | --- | --- | --- | --- | --- | --- | --- | --- | --- | --- | --- | --- |
| C=C(C)[C@@H]1CC[C@]2(C(=O)O)CC[C@]3(C)[C@H](CC[C@@H]4[C@@]5(C)CC[C@H](O)C(C)(C)[C@@H]5CC[C@]43C)[C@@H]12 [LX-2005, Betulinic acid] | 97.5 | 87.2 | 73.8 | 31.5 | 93.3 | 212 | 252 | 102 | 95.7 | 82.9 | 57.2 | 5.3 | – | – | – |
| CC1(C)CC[C@]2(C(=O)NO)CC[C@]3(C)[C@H](C(=O)C=C4[C@@]5(C)C=C(C#N)C(=O)C(C)(C)[C@@H]5CC[C@]43C)[C@@H]2C1 [LX-2309] | 69.7 | – | – | – | 2.7 | – | – | 112 | 14.9 | – | – | – | 307 | 322 | – |
| CO[C@@H]1[C@H](N(C)C(=O)c2ccccc2)C[C@H]2O[C@]1(C)n1c3ccccc3c3c4c(c5c6ccccc6n2c5c31)C(=O)NC4 [LX-3307, Midostaurin, reference compound] | 108 | 32.7 | – | – | 96.1 | – | – | 99.8 | 51.9 | 20 | – | – | 288 | 295 | – |
| C#CC(=O)N1[C@@H](CCCC)Cc2cc(CO)ccc2[C@@H]1c1ccc(NC23CC4CC(CC(C4)C2)C3)cc1 [LX-421] | 3.4 | – | – | – | – | – | – | 3.8 | – | – | – | – | 293 | 328 | – |
| COc1cc2nccc(Oc3ccc(NC(=O)NC4CC4)c(Cl)c3)c2cc1C(N)=O [LX-2803, Lenvatinib, reference compound] | 62 | 11.5 | 3.6 | – | 43.9 | – | – | 91.2 | 84.9 | 54.4 | – | – | 282 | 195 | – |
| Cc1c(-c2ccc(-c3ccccc3F)cc2)nc2ccc(F)cc2c1C(=O)O [LX-1602, Brequinar, reference compound] | 109 | 57.7 | 36.4 | – | 93.8 | – | – | 94.3 | 96.5 | 39.8 | – | – | 228 | 197 | – |
| C[C@@H]1C(=O)C(C#N)=C[C@]2(C)C3=CC(=O)[C@@H]4[C@@H]5CC(C)(C)CC[C@]5(CO)CC[C@@]4(C)[C@]3(C)CC[C@@H]12 [LX-2317] | 48.2 | – | – | – | 7.8 | – | – | 93.5 | 29.7 | – | – | – | 317 | 282 | – |
| COC1=C(OC)C(=O)C(CCCCCCCCCC[P+](c2ccccc2)(c2ccccc2)c2ccccc2)=C(C)C1=O [LX-1203, Mitoquinone] | – | 1.5 | – | – | 38.2 | – | – | 88.7 | 15.5 | – | – | – | 311 | 298 | – |
| CC/C=C\C/C=C\C/C=C\C/C=C\C/C=C\C/C=C\CCC(=O)O [LX-2702, Docosahexaenoic acid] | 104 | 87.4 | 49.6 | 22.9 | 99.1 | 206 | – | 96.7 | 94.4 | 55.1 | 9.5 | – | – | – | 237 |
| C[C@@H]1[C@H]2[C@H]3C(=O)C=C4[C@@]5(C)C=C(C#N)C(=O)C(C)(C)[C@@H]5CC[C@@]4(C)[C@]3(C)CC[C@@]2(c2nc(CCO)no2)CC[C@H]1C [LX-2511] | 43.5 | – | – | – | 8.4 | – | – | 97.2 | 2.1 | – | – | – | 306 | 296 | – |
